≈ marks a conversion by molar mass, not a printed value. Calls of active or inactive are those of the source. The calls are words filed in the database; no cut-off is given here.
Assays:
[1] = system: MCF7; experiment: Synergistic cytotoxicity against human MCF7 cells assessed as reduction in cell viability incubated for 72 hrs by MTT assay in presence of Noducyclamide B1; format: functional, cell-based
[2] = system: MCF7; experiment: Cytotoxicity against human MCF7 cells assessed as decrease in cell viability incubated for 72 hrs by MTT assay; format: functional, cell-based; conditions: MCF7, 72 h

SMILES | Activity [1] | IC50 [2] [µg/mL]
CCCCCCC[C@@H]1CC(=O)N[C@@H](CCC(N)=O)C(=O)N2C[C@H](O)C[C@H]2C(=O)N2C[C@H](O)C[C@H]2C(=O)N[C@@H](Cc2ccc(O)cc2)C(=O)N[C@H](CC(C)C)C(=O)N[C@@H](C(C)C)C(=O)N[C@H](C(C)(C)O)C(=O)N[C@@H](CC(C)C)C(=O)NCC(=O)N1 | inactive | 18 (≈ 15.2 µM)
CCCCCCC[C@@H]1CC(=O)N[C@@H](C(C)C)C(=O)N[C@H]([C@@H](O)C(C)C)C(=O)N[C@@H](C)C(=O)N[C@H]([C@@H](O)C(C)C)C(=O)N[C@@H](CCC(N)=O)C(=O)N(C)[C@@H]([C@@H](C)CC)C(=O)N[C@H](CC(N)=O)C(=O)N[C@H]([C@H](C)O)C(=O)N2C[C@H](O)C[C@H]2C(=O)N[C@H](C(C)C)C(=O)N[C@@H]([C@@H](C)O)C(=O)N1 |  | 3 (≈ 2.17 µM)
CCCCCCC[C@@H]1CC(=O)N[C@@H](CCC(N)=O)C(=O)N2C[C@H](O)C[C@H]2C(=O)N2CCC[C@H]2C(=O)N[C@@H](Cc2ccc(O)cc2)C(=O)N[C@H](CC(C)C)C(=O)N[C@@H](C(C)C)C(=O)N[C@H](C(C)(C)O)C(=O)N[C@@H](CC(C)C)C(=O)NCC(=O)N1 | inactive | 9.6 (≈ 8.22 µM)

— ChEMBL document CHEMBL5620438, “Noducyclamides A1-A4, B1, and B2 from the Cyanobacterium Nodularia sp. NIES-3585” (J Nat Prod, 2024)
